68 molecules from patent US20050209278A1, “Piperidinyl- and piperazinyl-sulfonylmethyl hydroxamic acids and their use as protease inhibitors” (priority 2002, published 2005) can be followed below.

The target of the experiment is T1, MMP-13 (Homo sapiens, UniProt P45452).
T1 construct: made in house; host or cells: baculovirus / insect cells
As to the kind of experiment: In vitro MMP inhibition, Ki determination (fluorogenic substrate II). It counts as biochemical. The following applies: read-out: MMP-13 Ki. The method, boiled down:
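Room-temperature, 1 h incubation of APMA-activated recombinant human MMP-13 with 4 μM quenched substrate II (cleaved at Gly-Leu) in pH 7.5 Tris/NaCl/CaCl2 buffer. Inhibition appears as a slowed rise in 330/420 nm fluorescence. Single low enzyme and substrate levels were used for Ki.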

Each structure is given as a SMILES string. pKi: −log10 of the molar value. Where two headings read alike, the source gives them in different places.

The term pKi denotes the negative decadic logarithm of the Ki, by convention in mol/L. For the molecule `CCCCc1ccc(C2CCN(S(=O)(=O)C3(C(=O)NO)CCN(CCOC)CC3)CC2)s1` [Example 55], where the note is “value not in parenthesis”, the pKi is 8.40. Take `O=C(NO)C1(S(=O)(=O)N2CCN(c3ccc(COCC(F)(F)C(F)F)cc3)CC2)CCOCC1` [Example 71]: under “value not in parenthesis”, the pKi was 9.10. Regarding `O=C(NO)C1(S(=O)(=O)N2CCN(c3ccc(COCC(F)(F)F)cc3)CC2)CCOCC1` [Example 72], the negative-log Ki (pKi) (value not in parenthesis) is 9.07.

With `O=C(NO)C1(S(=O)(=O)N2CCN(c3ccc(OC4CCC4)c(F)c3)CC2)CCOCC1` [Example 73], the negative logarithm of the Ki (pKi) (value not in parenthesis) was 8.01. On to `O=C(NO)C1(S(=O)(=O)N2CCN(c3ccc(OCc4ccccc4)cn3)CC2)CCOCC1` [Example 74], for which the negative-log Ki (pKi) (value not in parenthesis) was 10.22.

For `O=C(NO)C1(S(=O)(=O)N2CCN(c3ccc(-c4ccccc4)cc3)CC2)CCOCC1` [Example 76], the pKi (value not in parenthesis) was 9.40.

As for `O=C(NO)C1(S(=O)(=O)N2CCN(c3ccc(CCC(F)(F)F)cc3)CC2)CCOCC1` [Example 77], the pKi (value not in parenthesis) was 9.08. Consider `CCN1CCC(C(=O)NO)(S(=O)(=O)N2CCN(c3ccc(OCCCC(F)(F)F)cc3)CC2)CC1` [Example 78], for which, for the setting “value not in parenthesis”, the pKi is 9.37.

Turning to `CC(C)COc1ccc(N2CCN(S(=O)(=O)C3(C(=O)NO)CCOCC3)CC2)cc1Cl` [Example 79], the negative logarithm of the Ki (pKi) (value not in parenthesis) was 8.18. On the same count and under the same terms, to `O=C(NO)C1(S(=O)(=O)N2CCN(c3ccc(OCCCC(F)(F)F)cc3F)CC2)CCOCC1` [Example 81] belongs 9.58; to `O=C(NO)C1(S(=O)(=O)N2CCN(c3cccc(C(F)(F)F)c3)CC2)CCOCC1` [Example 82], 8.13. Still for that read-out and setting: to `O=C(NO)C1(S(=O)(=O)N2CCN(c3ccc(OCCCC(F)(F)F)cn3)CC2)CCOCC1` [Example 83] belongs 10.32; to `CCCCOc1ccc(N2CCN(S(=O)(=O)C3(C(=O)NO)CCN(C(C)(C)C)CC3)CC2)c(F)c1` [Example 84], 8.72. In the case of `CCCCOc1ccc(N2CCN(S(=O)(=O)C3(C(=O)NO)Cc4ccccc4C3)CC2)nc1` [Example 85], the pKi (value not in parenthesis) is 9.60. The same measure, in the same setting: as for `COCCN1CCC(C(=O)NO)(S(=O)(=O)N2CCN(c3ccc(OCCCCF)cc3)CC2)CC1` [Example 88], the figure is 9.74. `O=C(NO)C1(S(=O)(=O)N2CCN(c3ccc(OCCCCF)cc3)CC2)CCOCC1` [Example 89]: under “value not in parenthesis”, the pKi was 9.77.

For the molecule `CCCCOc1ccc(N2CCN(S(=O)(=O)C3(C(=O)NO)CCOCC3)CC2)c(F)c1` [Example 90], the pKi (value not in parenthesis) is 9.41. The same measure, in the same setting: to `CCCCc1ccc(N2CCN(S(=O)(=O)C3(C(=O)NO)CCOCC3)CC2)c(F)c1` [Example 91] belongs 8.79; to `CCCCOc1ccc(N2CCN(S(=O)(=O)C3(C(=O)NO)CCN(c4nc5ccccc5s4)CC3)CC2)cc1` [Example 93], 7.59. The same measure, in the same setting: to `O=C(NO)C1(S(=O)(=O)N2CCN(c3ccc(C(F)(F)F)cn3)CC2)CCOCC1` [Example 94] belongs 9.09; to `CCCCCc1ccc(N2CCN(S(=O)(=O)C3(C(=O)NO)CCN(c4ncccn4)CC3)CC2)nc1` [Example 95], 9.17; to `CCCCc1ccc(N2CCN(S(=O)(=O)C3(C(=O)NO)CCN(c4cccnc4)CC3)CC2)nc1` [Example 96], 9.36. For `CCCCOc1ccc(N2CCN(S(=O)(=O)C3(C(=O)NO)CCN(C(=O)OCC(C)(C)C)CC3)CC2)cc1` [Example 97], the pKi (value not in parenthesis) was 7.66.

Regarding `C#CCOC(=O)N1CCC(C(=O)NO)(S(=O)(=O)N2CCN(c3ccc(OCCCC)cc3)CC2)CC1` [Example 98], where the note is “value not in parenthesis”, the pKi is 9.42.

With `CCCCc1ccc(N2CCN(S(=O)(=O)C3(C(=O)NO)CCN(c4ncccn4)CC3)CC2)nc1` [Example 99], the pKi (value not in parenthesis) was 9.52.

`CCCCOc1ccc(N2CCN(S(=O)(=O)C3(C(=O)NO)CCOCC3)CC2)nc1` [Example 100]: the pKi (value not in parenthesis) is 10.22.

For the molecule `CCCCOc1ccc(N2CCN(S(=O)(=O)C3(C(=O)NO)CCN(c4ccc(Cl)c(Cl)c4)CC3)CC2)cc1` [Example 250], the pKi (value not in parenthesis) was 7.74. `CCCCOc1ccc(N2CCN(S(=O)(=O)C3(C(=O)NO)CCN(c4ccc(Cl)cc4)CC3)CC2)cc1` [Example 251]: under “value outside parentheses”, the pKi was 7.89. The same measure, in the same setting: as for `CCCCOc1ccc(N2CCN(S(=O)(=O)C3(C(=O)NO)CCN(Cc4ccco4)CC3)CC2)cc1` [Example 252], the figure is 9.43; as for `CCCCOc1ccc(N2CCN(S(=O)(=O)C3(C(=O)NO)CCN(C(N)=O)CC3)CC2)cc1` [Example 253], 9.45; as for `CCCCOc1ccc(N2CCN(S(=O)(=O)C3(C(=O)NO)CCN(C(=O)N(C)C)CC3)CC2)cc1` [Example 254], 10.00. The same measure, in the same setting: as for `CCCCOc1ccc(N2CCN(S(=O)(=O)C3(C(=O)NO)CCN(C(=O)c4ccccc4)CC3)CC2)cc1` [Example 255], the figure is 9.41; as for `CCCCOc1ccc(N2CCN(S(=O)(=O)C3(C(=O)NO)CCN(c4ccc(C(F)(F)F)cn4)CC3)CC2)cc1` [Example 257], 7.89. Same read-out and setting: to `O=C(NO)C1(S(=O)(=O)N2CCN(c3ccc(SC(F)(F)F)cc3)CC2)CCS(=O)(=O)CC1` [Example 258] belongs 7.52; to `CCCCOc1ccc(N2CCN(S(=O)(=O)C3(C(=O)NO)CCN(C(=O)c4ccncc4)CC3)CC2)cc1` [Example 259], 9.44; to `CCCCOc1ccc(N2CCN(S(=O)(=O)C3(C(=O)NO)CCN(C(=O)C4CC4)CC3)CC2)cc1` [Example 260], 9.52. Turning to `CCc1ccc(N2CCN(S(=O)(=O)C3(C(=O)NO)CCCC3)CC2)nc1` [Example 261], the pKi (value outside parentheses) is 9.34. Turning to `CCc1ccc(N2CCN(S(=O)(=O)C3(C(=O)NO)CCCCC3)CC2)nc1` [Example 263], the pKi (value outside parentheses) is 9.58.

For `CCCCOc1ccc(N2CCN(S(=O)(=O)C3(C(=O)NO)CCN(c4ccccc4)CC3)CC2)cc1` [Example 264], the pKi (value outside parentheses) is 10.32. With `CCCCOc1ccc(N2CCN(S(=O)(=O)C3(C(=O)NO)CCN(C(=O)CC(F)(F)F)CC3)CC2)cc1` [Example 265], the pKi (value outside parentheses) was 9.20. On to `CCCCOc1ccc(N2CCN(S(=O)(=O)C3(C(=O)NO)CCN(C(=O)c4cccnc4)CC3)CC2)cc1` [Example 266], for which, where the note is “value outside parentheses”, the negative-log Ki (pKi) was 9.51. For `CCCCOc1ccc(N2CCN(S(=O)(=O)C3(C(=O)NO)CCN(C(=O)C(C)(C)C)CC3)CC2)cc1` [Example 267], the pKi (value outside parentheses) is 9.19. On the same count and under the same terms, as for `CCCCOc1ccc(N2CCN(S(=O)(=O)C3(C(=O)NO)CCN(C(=O)COC)CC3)CC2)cc1` [Example 268], the figure is 9.51.

As to `CCCCOc1ccc(N2CCN(S(=O)(=O)C3(C(=O)NO)CCN(C=O)CC3)CC2)cc1` [Example 269], the pKi (value outside parentheses) is 9.60. Still for that read-out and setting: to `CCCCc1ccc(N2CCN(S(=O)(=O)C3(C(=O)NO)CCN(CCOC)CC3)CC2)nc1` [Example 270] belongs 9.47; to `CCCCOc1ccc(N2CCN(S(=O)(=O)C3(C(=O)NO)CCN(C(=O)CO)CC3)CC2)cc1` [Example 271], 9.34; to `CCCCCc1ccc(N2CCN(S(=O)(=O)C3(C(=O)NO)CCN(C4CC4)CC3)CC2)cc1` [Example 272], 9.48. Turning to `CCCCOc1ccc(N2CCN(S(=O)(=O)C3(C(=O)NO)CCN(C(=O)C(C)C)CC3)CC2)cc1` [Example 273], the pKi (value outside parentheses) was 9.50.

Regarding `CCCCOc1ccc(N2CCN(S(=O)(=O)C3(C(=O)NO)CCN(C(=O)CC)CC3)CC2)cc1` [Example 274], the pKi (value outside parentheses) is 9.32. Same read-out and setting: to `CCCCOc1ccc(N2CCN(S(=O)(=O)C3(C(=O)NO)CCN(c4ccc(C)nn4)CC3)CC2)cc1` [Example 275] belongs 9.67.

For `CCCCOc1ccc(N2CCN(S(=O)(=O)C3(C(=O)NO)CCNCC3)CC2)cc1` [Example 276], for the setting “value outside parentheses”, the pKi is 8.60. As to `CCCCOc1ccc(N2CCN(S(=O)(=O)C3(C(=O)NO)CCN(C(=O)c4ccccn4)CC3)CC2)cc1` [Example 277], under “value outside parentheses”, the pKi is 9.64.

Regarding `CCCCOc1ccc(N2CCN(S(=O)(=O)C3(C(=O)NO)CCN(C(=O)CCCC)CC3)CC2)cc1` [Example 278], under “value outside parentheses”, the pKi is 9.31. Same read-out and setting: as for `CC(C)CCOc1ccc(N2CCN(S(=O)(=O)C3(C(=O)NO)CCOCC3)CC2)cc1` [Example 279], the figure is 9.49. Same read-out and setting: to `CCCCOc1ccc(N2CCN(S(=O)(=O)C3(C(=O)NO)CCN(C)CC3)CC2)cc1` [Example 280] belongs 8.99. `CCCCOc1ccc(N2CCN(S(=O)(=O)C3(C(=O)NO)CCN(c4ccc(Cl)nn4)CC3)CC2)cc1` [Example 281]: the pKi (value outside parentheses) was 9.35. Consider `CCCCOc1ccc(N2CCN(S(=O)(=O)C3(C(=O)NO)CCN(C(C)=O)CC3)CC2)cc1` [Example 282], for which, where the note is “value outside parentheses”, the pKi was 9.57. Consider `CCCCOc1ccc(N2CCN(S(=O)(=O)C3(C(=O)NO)CCN(c4ccc(O)nn4)CC3)CC2)cc1` [Example 283], for which, for the setting “value outside parentheses”, the pKi was 9.72. In the case of `CCCCOc1ccc(N2CCN(S(=O)(=O)C3(C(=O)NO)CCN(CCOC)CC3)CC2)c(F)c1` [Example 284], the pKi (value outside parentheses) was 9.92.

As for `CCCCOc1ccc(N2CCN(S(=O)(=O)C3(C(=O)NO)CCN(Cc4ccccc4)CC3)CC2)cc1F` [Example 285], the pKi (value outside parentheses) was 8.69. As for `CCCCOc1ccc(N2CCN(S(=O)(=O)C3(C(=O)NO)CCNCC3)CC2)cc1F` [Example 286], the pKi (value outside parentheses) is 8.22. Regarding `COCCN1CCC(C(=O)NO)(S(=O)(=O)N2CCN(c3ccc(Oc4ccccc4)cc3)CC2)CC1` [Example 287], the pKi (value outside parentheses) is 8.48. Consider `CCCCCc1ccc(C2CCN(S(=O)(=O)C3(C(=O)NO)CCOCC3)CC2)nc1` [Example 305], for which the pKi (value outside parentheses) is 9.87. Same read-out and setting: to `O=C(NO)C1(S(=O)(=O)N2CCC(c3ccc(Br)cn3)CC2)CCOCC1` [Example 306] belongs 9.06. Still for that read-out and setting: to `CCCCc1ccc(C2CCN(S(=O)(=O)C3(C(=O)NO)CCOCC3)CC2)nc1` [Example 307] belongs 9.18.

As for `O=C(NO)C1(S(=O)(=O)N2CCC(c3ccc(-c4ccc(F)cc4F)cn3)CC2)CCOCC1` [Example 308], the pKi (value outside parentheses) is 8.37. Same read-out and setting: as for `COCCN1CCC(C(=O)NO)(S(=O)(=O)N2CCC(c3ccc(CCC(F)(F)F)cc3)CC2)CC1` [Example 309], the figure is 9.45; as for `COCCN1CCC(C(=O)NO)(S(=O)(=O)N2CCC(c3ccc(CCCC(F)(F)F)cc3)CC2)CC1` [Example 310], 9.57.
